Test results reported in patent publication US10987319B2, “TFEB activator C1 ameliorates app and tau pathology and rescues cognitive deficits in neurodegenerative diseases” (Hong Kong Baptist University, priority 2018, dated 2021).

Legend:
Type in all cases: in vivo
[1] = Pharmacokinetic study in mice, oral (brain and blood levels by LC/MS/MS); conditions: male, mouse, C57BL/6 mice, oral 10 mg/kg, brain
[2] = tested on: 5×FAD mice; assay: Contextual fear conditioning; conditions: 50 mg/kg oral daily 4 months, P<0.05
Method: Male 5×FAD mice were purchased from Jackson laboratories (Stock number 006554) and maintained at 23±2° C. temperature, 60±15% relative humidity with free access to food and water ad libitum. 5×FAD male mice were inbred with wild-type (WT, C57/BL6) female mice to produce heterozygous offspring. Offspring were genotyped to select 5×FAD (APP KM670/671NL (Swedish), APP I716V (Florida), APP V717I (London), PSEN1 M146L (A>C), PSEN1 L286V) gene mutations mice. Two months old WT and 5×FAD mice (male and female, n=10-14 per group) were treated daily with vehicle (1% sodium carbonyl methylcellulose [CMC-Na; Sigma-Aldrich, C5678]), curcumin analogue C1 (5 mg/kg, 10 mg/kg) or curcumin (50 mg/kg; Sigma-Aldrich, 08511) suspended in 1% CMC-Na by oral gavage for 4 months.
Contextual fear conditioning (CFC) was used to evaluate the fear memory reconsolidation of 5×FAD mice after treatment. The experiment was conducted 30 min after the drug treatment in ANY maze fear conditioning system under licensed ANY maze tracking system connected to a Windows XP computer. A digital camera was installed on each chamber and signals were sent to the computer for analysis. The experiments were conducted in two sound proof chambers. All the experiments were conducted with continuous 40 units of white noise and 40 lux white light. During training, mice were allowed to explore the platform for 2.5 min and then received 3 repeated footshock cycles (30 s) at 30 s intervals, each started with a cue tone (28 s, 1500 Hz) and ended by a footshock ([…], 2 s). On the second day the mice were allowed to explore the platform for 3 min followed by a cue tone (30 s, 1500 Hz) without footshock, and the freezing time was recorded. Contextual fear memory formation and the subsequent remote memory stabilization were evaluated by scoring freezing index (the absence of all but respiratory movement).

[3] = tested on: APP, APP CTFs, Aβ, LC3-II; assay: Western blotting of brain tissue, 5×FAD mice
Method: 5×FAD male mice were inbred with wild-type (WT, C57/BL6) female mice to produce heterozygous offspring. Offspring were genotyped to select 5×FAD (APP KM670/671NL (Swedish), APP I716V (Florida), APP V717I (London), PSEN1 M146L (A>C), PSEN1 L286V) gene mutations mice.
(§1) Brain tissues were lysed with RIPA buffer (TBS with 1% NP-40, 1% sodium deoxycholic acid, 0.1% SDS, and protease phosphatase inhibitor cocktails) and centrifuged at 15,000 RPM for 30 min. Supernatant is collected and the pellets were further lysed with 2% SDS in RIPA buffer. Protein concentration was estimated by BCA assay. […] Protein chemiluminescence signal was detected by using ECL kit and quantified using ImageJ software.

[4] = tested on: 3×Tg mice; assay: Open-field test; conditions: 3×Tg mice, 50 mg/kg oral 7 months
Method: Homozygous 3×Tg mice (APP KM670/671NL (Swedish), MAPT P301L, PSEN1 M146V) were produced in Hong Kong Baptist University animal house and maintained at 23±2° C. temperature, 60±15% relative humidity with free access to food and water ad libitum. Seven months old WT (129/SvJ, n=6 for male mice; n=10 for female mice) and 3×Tg mice (n=6 for male mice; n=10 for female mice) were treated daily with vehicle (1% CMC-Na; Sigma-Aldrich, C5678]), curcumin analogue C1 (2.5 mg/kg, 5 mg/kg, 10 mg/kg) or curcumin (50 mg/kg; Sigma-Aldrich, 08511) suspended in 1% CMC-Na by oral gavage for 7 months. 3×Tg mice were treated with the indicated compounds for 7 months and then the open-field test was performed to evaluate the exploratory behavior in novel environment. The experiment was conducted 30 min after last dosing time. Mice placed in the center of an empty open field (25 cm×25 cm) were allowed to explore the environment for 5 min without any external disturbance. Ethnovision XT software was used to measure the patterns of movement, time spent in the center and margin, velocity, distance traveled as indicators of agility and exploration.

[5] = tested on: 3×Tg mice; assay: Morris-water maze; conditions: 50 mg/kg oral 7 months
Method: Homozygous 3×Tg mice (APP KM670/671NL (Swedish), MAPT P301L, PSEN1 M146V) were produced in Hong Kong Baptist University animal house and maintained at 23±2° C. temperature, 60±15% relative humidity with free access to food and water ad libitum. Seven months old WT (129/SvJ, n=6 for male mice; n=10 for female mice) and 3×Tg mice (n=6 for male mice; n=10 for female mice) were treated daily with vehicle (1% CMC-Na; Sigma-Aldrich, C5678]), curcumin analogue C1 (2.5 mg/kg, 5 mg/kg, 10 mg/kg) or curcumin (50 mg/kg; Sigma-Aldrich, 08511) suspended in 1% CMC-Na by oral gavage for 7 months. 3×Tg mice were treated with the indicated compounds for 7 months and Morris-water maze (MWM) was used to evaluate the spatial learning memory. MWM is a circular water (21±1° C.) container with 1 meter diameter. Animals were pre-quarantined and acclimatized to the experimenting room at least 1 week before the start of the experiment. The experiment was started with one day visual platform trial. Each mouse underwent 4 visible platform trails (each trial 60 seconds) with different platform placement, positioned above the water level. Hidden platform training was conducted after mixing a non-toxic paint in the water. Mice were trained for 6 continuous days, each day composed of different session with 4 hidden platform trials (each trial 60 seconds). Each session was designed with randomized animal introduction pattern into the water maze with unchanged platform position. Each trial was conducted with 30 min inter-trial interval and provided with external cues. To assess the long term spatial memory retrieval a probe trial (60 seconds) was conducted 24 h after the last training session. During probe trial water maze was divided into 4 quadrants. The hidden platform in the target quadrant was removed after determining its location. Ethnovision XT software was used to observe and record the swimming pattern. During hidden platform training sessions, time spent to find the platform was taken as a parameter to evaluate memory acquisition. In probe trial percentage of time spent in the target quadrant compared to the other 3 quadrants was calculated.

[6] = tested on: APP, CTFs, phosphorylated Tau, total Tau, TFEB, LC3-II; assay: Western blotting of hippocampus, female 3×Tg mice; conditions: 50 mg/kg oral 7 months
Method: (§2) Homozygous 3×Tg mice (APP KM670/671NL (Swedish), MAPT P301L, PSEN1 M146V) were produced in Hong Kong Baptist University animal house and maintained at 23±2° C. temperature, 60±15% relative humidity with free access to food and water ad libitum.
as §1

[7] = tested on: Aβ plaques; assay: Immunohistochemistry of Aβ plaques (4G8 antibody), 3×Tg mice; conditions: 50 mg/kg oral 7 months
Method: as §2
Brain sections (30 μm) were cut on a microtome and stored at 4° C. in PBS+0.1% sodium azide. Sections were permeabilized for 10 min with cold PBS containing 0.5% Triton X-100 and blocked with 3% bovine serum albumin for 1 h at room temperature.

[8] = 5×FAD mice, male and female, 50 mg/kg oral 4 months

**Q.** Which results are given for `COc1cc(/C=C/C(=O)CC(=O)/C=C/c2ccc(O)c(OC)c2)ccc1O` [curcumin, Curcumin, reference compound]?
**A.** Tmax [1]: 1 h; Cmax ([1]; read-out: maximum concentration (Cmax) in the brain): 73.77 ± 0.24 ng/g; freezing index (memory reconsolidation) vs vehicle [2]: significant memory reconsolidation; LC3-II levels in brain (autophagy enhancement) [3, 8]: increase in LC3-II levels; levels of A3 in brain [3, 8]: significantly reduced; levels of APP CTFs in brain [3, 8]: significantly reduced; Fl-APP levels in brain ([3]; female 5×FAD mice, oral 4 months): reduced Fl-APP levels; improvement in the open field test [4]: no significant improvement; percentage of time spent in the target quadrant, probe trial, vs vehicle [5]: significantly increased; CTFs [6]: no significant reduction; levels of phosphorylated Tau (PHF1, AT8) ([6]; hippocampus): significantly decreased; Aβ load [7]: no significant reduction
